In patent US20260315446A1, “ANTIFUNGAL COMPOUNDS AND USES THEREOF” (priority 2023, published 2026):
Entries after “also recorded” stand apart in the source; their conditions may differ.

Columns and labels:
[1] = test system: T follicular helper (Tfh) cells; test: In vivo immunosuppression, T follicular helper cells (Example 3); conditions: 8 days
Protocol: The in vivo immunosuppressive effect of JH-FK-08 was assessed by studying T follicular helper (Tfh) cell production in mice. Tfh cells play a role in protection against and response to fungal infections (see, Wong G K, et al., 1998. J Antibiot 51:487-491; Cruz M C, et al., 1999. Mol Cell Biol 19:4101-4112). For this study, immunocompetent C57BL/6 mice received 8 days of twice-daily dosing of vehicle, FK506 (2.5 mg/kg), or JH-FK-08 (20 or 40 mg/kg). Twenty-four hours after the first dose, mice were immunized with NP-OVA to induce an immune response. Cells were analyzed 7 days post immunization, and cell types were analyzed by flow cytometry (FIG. 15B).
Cell surface staining of single cell suspensions was performed in staining buffer (PBS supplemented with 2 mM EDTA and 0.5% BSA). Anti-FcγR (93; Biolegend) was treated to block the Fe receptor before surface staining of primary cells isolated from lymph nodes of NP-OVA-immunized mice. Cells were stained with fixable viability dye (eBioscience) before surface staining to exclude dead cells from analysis. For the detection of intracellular cytokines, cells were additionally incubated with phorbol 12-myristate 13-acetate and ionomycin in the presence of GolgiStop (BD Biosciences) during the final 4 h of incubation. For intracellular staining, cells were fixed and permeabilized with Fixation/Permeabilization Buffer (eBioscience). Flow cytometric analysis was performed utilizing BD FACSCantoII or BD LSRFortessaX20 (BD Biosciences) and FlowJo software (BD Biosciences).
Groups of five female C57BL/6 mice were treated twice daily for 8 days with vehicle, FK506 (2.5 mg/kg), JH-FK-08 (20 mg/kg), or JH-FK-08 (40 mg/kg) via i.p. injection. Twenty-four hours after the first dose, animals were immunized with NP-OVA (100 μg) in alum via subcutaneous injection. Seven days post immunization, mice were sacrificed, and draining lymph nodes were harvested for the analysis of Tfh cells and GC B cells by flow cytometry.

[2] = target: T1, C. albicans FKBP12 and CnA-CnB-calmodulin complex (UniProt C4YFI3+C4YS24+P28870); test: Biolayer interferometry ternary complex formation; assay type: binding, Candida albicans; conditions: BLI, 10 μM compound, steady-state and kinetic analyses
T1 construct: N-tagged CnA 54-609, untagged CnB and calmodulin co-expressed in Tni insect cells
T1 sequence (P28870 whole entry): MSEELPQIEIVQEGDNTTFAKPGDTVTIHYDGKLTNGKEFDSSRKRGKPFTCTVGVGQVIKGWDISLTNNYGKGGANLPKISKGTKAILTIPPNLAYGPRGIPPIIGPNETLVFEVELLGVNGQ
T1 sequence (C4YFI3 54-609): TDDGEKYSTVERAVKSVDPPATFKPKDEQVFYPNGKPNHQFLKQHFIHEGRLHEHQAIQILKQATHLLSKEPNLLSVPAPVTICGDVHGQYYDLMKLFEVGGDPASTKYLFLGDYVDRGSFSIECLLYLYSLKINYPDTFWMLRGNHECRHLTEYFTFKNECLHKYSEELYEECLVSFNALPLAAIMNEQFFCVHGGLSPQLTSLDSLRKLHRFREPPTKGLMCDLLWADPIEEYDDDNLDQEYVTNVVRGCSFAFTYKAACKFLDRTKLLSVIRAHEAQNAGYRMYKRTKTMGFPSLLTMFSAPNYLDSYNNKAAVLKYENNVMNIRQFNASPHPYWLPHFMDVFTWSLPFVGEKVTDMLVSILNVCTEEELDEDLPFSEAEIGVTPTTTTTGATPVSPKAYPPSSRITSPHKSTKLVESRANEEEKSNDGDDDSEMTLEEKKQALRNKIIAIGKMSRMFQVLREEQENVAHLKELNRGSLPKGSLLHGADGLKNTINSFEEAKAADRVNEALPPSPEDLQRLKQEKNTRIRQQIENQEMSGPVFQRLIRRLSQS
T1 sequence (C4YS24 1-173): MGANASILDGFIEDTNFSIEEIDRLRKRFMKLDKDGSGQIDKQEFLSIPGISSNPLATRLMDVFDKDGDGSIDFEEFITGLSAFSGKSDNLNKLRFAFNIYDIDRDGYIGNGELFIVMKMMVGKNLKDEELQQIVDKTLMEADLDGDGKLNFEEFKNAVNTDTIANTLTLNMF
T1 sequence (P23286 whole entry partner): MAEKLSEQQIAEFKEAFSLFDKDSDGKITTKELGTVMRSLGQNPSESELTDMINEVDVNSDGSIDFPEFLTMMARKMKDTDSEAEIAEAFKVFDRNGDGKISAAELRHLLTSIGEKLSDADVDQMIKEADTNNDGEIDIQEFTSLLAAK
Protocol: To better understand the relationship between structure and activity of these analogs, FK506 analog, JH-FK-02 was tested, and one FK520 analog, JH-FK-05 was tested, for their binding dynamics to CnA and CnB by biolayer interferometry (BLI). Purified and biotinylated (Avi-tagged) FKBP12 from A. fumigatus and C. albicans were loaded onto streptavidin sensors in the presence of an inhibitor, followed by titration of the respective CnA-CnB-calmodulin complex, also in the presence of an inhibitor. Data were double referenced using parallel reference sensors and sample blanks.
Biolayer interferometry (BLI) experiments were completed using either A. fumigatus or C. albicans FKBP12 and CnA/CnB/calmodulin complexes, along with compounds FK506, APX879, FK520, JH-FK-02, and JH-FK-05. Initial buffer (25 mM Tris, 200 mM NaCl, and 1 mM TCEP [pH 8.0]) was prepared using 1 M Tris-HCl (pH 8.0, catalog no. T1080; Teknova), 5 M sodium chloride (catalog no. S0251; Teknova), TCEP (catalog no. M115; Soltec Ventures, Inc.), and was readjusted to pH 8 before sterile filtering. […]
Data were processed and analyzed using ForteBio Data Analysis software version 11.1.3.10. […] Kinetics data were analyzed using the “association and dissociation curve fitting” option utilizing a 1:1 model. […]

For `C=CCC1C=C(C)CC(C)CC(OC)C2OC(O)(C(=O)C(=O)N3CCCCC3C(=O)OC(C(C)=CC3CCC(O)C(OC)C3)C(C)C(O)CC1=O)C(C)CC2OC` (centres unmarked) [FK506, reference compound], the “production of Tfh cells” value ([1]; FK506 2.5 mg/kg i.p. twice daily, 2.5 mg/kg) was “significantly reduced; also recorded: significantly inhibits Tfh cell production at 1/16 of the dose of JH-FK-08”.
With `C=CC[C@@H]1/C=C(\C)C[C@H](C)C[C@H](OC)[C@H]2O[C@@](O)(C(=O)C(=O)N3CCCC[C@H]3C(=O)O[C@H](/C(C)=C/[C@@H]3CC[C@@H](O)[C@H](OC)C3)[C@H](C)[C@@H](O)C/C1=N/NC(=O)CC)[C@H](C)C[C@@H]2OC` [JH-FK-02] the “affinity of target complex formation in presence of analog” value [2] was “affinities similar to those of the parent compounds”.
In the case of `CC[C@@H]1/C=C(\C)C[C@H](C)C[C@H](OC)[C@H]2O[C@@](O)(C(=O)C(=O)N3CCCC[C@H]3C(=O)O[C@H](/C(C)=C/[C@@H]3CC[C@@H](O)[C@H](OC)C3)[C@H](C)[C@@H](O)C/C1=N/NC(C)=O)[C@H](C)C[C@@H]2OC` [JH-FK-05], the “affinity of target complex formation in presence of analog” value [2] is reported as “affinities similar to those of the parent compounds”.
For `CC[C@@H]1/C=C(\C)C[C@H](C)C[C@H](OC)[C@H]2O[C@@](O)(C(=O)C(=O)N3CCCC[C@H]3C(=O)O[C@H](/C(C)=C/C3CC[C@@H](O)[C@H](OC)C3)[C@H](C)[C@@H](O)C/C1=N/NC(=O)OC)[C@H](C)C[C@@H]2OC` (some centres unmarked) [JH-FK-08], the “production of Tfh cells” value ([1]; JH-FK-08 20 mg/kg i.p. twice daily) was “no significant effect on the percent of Tfh cells produced compared to vehicle” and the “production of Tfh cells” value ([1]; JH-FK-08 40 mg/kg i.p. twice daily) was “production of Tfh cells was reduced”.
